For 40 molecules, Emax and IC50 results are on record in patent US9150592B2, “Heterocyclic nuclear hormone receptor modulators” (AbbVie Inc., priority 2012, dated 2015).

The test system of experiment [1] is IL-6 in A549 cells stimulated with IL-1β. The experiment is described as follows: A549 Cell Assay to Measure Inflammation Markers (inhibition of IL-1β-induced IL-6). It counts as cell-based. To be noted: Homo sapiens, A549, A549 Cell Assay to Measure Inflammation Markers; intrinsic activity, Emax class ranges. The procedure, abridged: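 Compound pre-incubated with A549 cells 1 h at 37 °C, then stimulated with IL-1β (1 ng/mL final, 0.1% DMSO). Supernatant IL-6 quantified by MSD immunoassay after a further incubation. IC50 and Emax derived.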

The target of experiment [2] is T1, Glucocorticoid Receptor (GR) (Homo sapiens, UniProt P04150).
T1 construct: purchased Invitrogen P2893
T1 sequence (P04150 1-777): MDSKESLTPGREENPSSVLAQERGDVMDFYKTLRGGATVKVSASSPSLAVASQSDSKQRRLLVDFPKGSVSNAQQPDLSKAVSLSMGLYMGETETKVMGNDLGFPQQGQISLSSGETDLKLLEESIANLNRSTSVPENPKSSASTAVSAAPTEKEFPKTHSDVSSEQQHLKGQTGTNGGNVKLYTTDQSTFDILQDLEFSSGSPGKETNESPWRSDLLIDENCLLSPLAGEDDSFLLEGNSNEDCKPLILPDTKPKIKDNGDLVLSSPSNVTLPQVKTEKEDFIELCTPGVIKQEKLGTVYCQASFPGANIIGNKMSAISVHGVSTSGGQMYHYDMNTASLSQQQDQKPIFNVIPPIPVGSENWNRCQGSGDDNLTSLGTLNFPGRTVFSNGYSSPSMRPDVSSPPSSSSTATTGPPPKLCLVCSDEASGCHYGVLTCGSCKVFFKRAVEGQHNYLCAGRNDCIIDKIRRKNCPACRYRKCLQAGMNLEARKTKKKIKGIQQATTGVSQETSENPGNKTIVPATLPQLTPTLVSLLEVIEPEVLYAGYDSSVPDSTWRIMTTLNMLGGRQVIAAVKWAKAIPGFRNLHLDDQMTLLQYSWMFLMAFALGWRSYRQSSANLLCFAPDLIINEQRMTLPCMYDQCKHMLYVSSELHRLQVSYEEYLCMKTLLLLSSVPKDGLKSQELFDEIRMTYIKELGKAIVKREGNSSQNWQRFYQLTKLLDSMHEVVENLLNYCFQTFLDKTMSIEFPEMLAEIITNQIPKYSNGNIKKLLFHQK
The experiment is described as follows: GR Fluorescence Polarization Assay (PolarScreen Glucocorticoid Receptor Competitor Assay, Red). The conditions noted are these: IC50 class ranges, read-out: GR binding. The procedure, abridged:
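Competitive fluorescence-polarization assay using a red fluorescent glucocorticoid tracer with human GR in kit buffer. Compounds serially diluted 1:4 in DMSO, incubated with tracer and GR overnight at 4° C, then polarization read.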

Usually Emax stands for the greatest response seen or fitted, relative to the assay's reference.

`Cc1cc(C#CCCO)ccc1[C@@H]1SC[C@H](C)Nc2c1c(-c1ccccn1)nn2C` (single isomer, unassigned) [M.54, 4-(4-(1,7-dimethyl-3-(pyridin-2-yl)-4,6,7,8-tetrahydro-1H-pyrazolo[3,4-e][1,4]thiazepin-4-yl)-3-methylphenyl)but-3-yn-1-ol] came in with an Emax in experiment [1] of less than 50%. The IC50 in experiment [2] was less than 100 nM.

On to `Cc1nn(C)c2c1C(c1ccc(Cl)cc1Cl)SC(C)(C)CN2C` (centres unmarked), for which the Emax in experiment [1] was less than 50%. For the same molecule, the IC50 in experiment [2] was in the range of 100 to 1000 nM.

Turning to `Cc1cc(Cl)ccc1C1SCCNc2c1c(-c1ccccn1)nn2C(C)C` (centres unmarked) [D.105], the Emax in experiment [1] is more than 60%. For the same molecule, the IC50 in experiment [2] was less than 100 nM.

On to `Cc1cc(Br)ccc1C1SCC(C#N)Nc2c1c(-c1ccccn1)nn2C` (racemic), for which the maximal response (Emax) in experiment [1] is more than 60%. The IC50 in experiment [2] was less than 100 nM.

In experiment [1], `CCn1nc(-c2ccccn2)c2c1NCCSC2c1ccc(C#N)cc1C` (centres unmarked) [G.10, 3-methyl-4-(1-ethyl-3-(pyridin-2-yl)-4,6,7,8-tetrahydro-1H-pyrazolo[3,4-e][1,4]thiazepin-4-yl)benzonitrile] yielded a maximal response (Emax) of more than 70%. In addition, the IC50 in experiment [2] was less than 100 nM.

With `Cc1ccc(Cl)cc1C1SC(C)(C)CNc2c1c(C1CC1)nn2C` (centres unmarked) [D.46], in experiment [1], the Emax is less than 50%. Also, in experiment [2], the IC50 was less than 100 nM.

Regarding `Cn1nc(C(C)(C)C)c2c1NCCSC2c1ccc(Cl)cc1Cl` (centres unmarked) [D.85], in experiment [1], the Emax is less than 50%. Moreover, in experiment [2], the IC50 lay within 100 to 1000 nM.

`CCn1nc(-c2ccccn2)c2c1NCCSC2c1ccc(Br)cc1C` (centres unmarked) [D.30, 4-(4-bromo-2-methyl-phenyl)-1-ethyl-3-(2-pyridyl)-4,6,7,8-tetrahydropyrazolo[3,4-e][1,4]thiazepine] had an Emax in experiment [1] of more than 70%. Further, the IC50 in experiment [2] is less than 100 nM.

As to `CC(C)c1nn(C)c2c1C(c1ccc(Cl)cc1Cl)SCCN2` (centres unmarked) [D.84], in experiment [1], the maximum response (Emax) was less than 50%. Further, the IC50 in experiment [2] is 100 to 1000 nM.

`Cc1cc(Cl)ccc1[C@H]1SC[C@@H](C)Nc2c1c(C)nn2C` (racemic) [K.7]: the Emax in experiment [1] was less than 50%. In experiment [2], the IC50 is less than 100 nM.

For `Cc1cc(Cl)ccc1[C@@H]1S[C@H](CCO)CNc2c1c(-c1ccccn1)nn2C` (single isomer, unassigned) [M.12, 2-(4-(4-chloro-2-methylphenyl)-1-methyl-3-(pyridin-2-yl)-4,6,7,8-tetrahydro-1H-pyrazolo[3,4-e][1,4]thiazepin-6-yl)ethanol], the Emax in experiment [1] is less than 50%. The IC50 in experiment [2] is 100 to 1000 nM.

With `Cn1nc(-c2ccccn2)c2c1NCCSC2c1ccc(Cl)cc1C1CC1` (centres unmarked) [D.38], in experiment [1], the maximal effect (Emax) is more than 50%. Further, in experiment [2], the IC50 was less than 100 nM.

The molecule `CCn1nc(-c2ccccn2)c2c1NCCSC2c1ccc(C(=O)Nc2cccnc2C)cc1C` (centres unmarked) [H.4] gave an Emax in experiment [1] of more than 70%. In addition, the IC50 in experiment [2] is less than 100 nM.

Take `CCn1nc(-c2ccccn2)c2c1N[C@@H](C)CS[C@H]2c1ccc(C(N)=O)cc1C` (single isomer, unassigned) [M.48, 4-(1-ethyl-7-methyl-3-(pyridin-2-yl)-4,6,7,8-tetrahydro-1H-pyrazolo[3,4-e][1,4]thiazepin-4-yl)-3-methylbenzamide]: the Emax in experiment [1] is more than 50%. For the same molecule, the IC50 in experiment [2] is less than 100 nM.

`CCn1nc(-c2ccccn2)c2c1NC(=O)CCC2c1ccc(Br)cc1C` (centres unmarked) [AA.1, 4-(4-Bromo-2-methylphenyl)-1-ethyl-3-(pyridin-2-yl)-4,5,6,8-tetrahydropyrazolo[3,4-b]azepin-7(1H)-one]: in experiment [1], the Emax was less than 50%. In addition, the IC50 in experiment [2] was less than 100 nM.

With `Cc1n[nH]c2c1C(c1ccc(Cl)cc1Cl)SC(C)(C)CN2` (centres unmarked) [D.63], the Emax in experiment [1] is less than 50%. Also, the IC50 in experiment [2] lay within 1000 to 10000 nM.

In experiment [1], `Cn1nc(C2CC2)c2c1NCC(C)(C)SC2c1ccc(Cl)cc1Cl` (centres unmarked) [D.74] showed an Emax of less than 50%. Besides, the IC50 in experiment [2] is less than 100 nM.

In the case of `COC(=O)c1cc(C2SCCNc3c2c(-c2ccccn2)nn3C)c(C)s1` (centres unmarked) [E.5], in experiment [1], the Emax is less than 50%. In experiment [2], the IC50 was in the range of 1000 to 10000 nM.

In experiment [1], `Cc1cc(Cl)ccc1C1SCCNc2c1c(-c1cc(Cl)ccn1)nn2C` (centres unmarked) [D.24] returned an Emax of less than 50%. The IC50 in experiment [2] was less than 100 nM.

Turning to `Cc1nn(C)c2c1C(c1ccc(Cl)cc1Cl)SC1(CCOCC1)CN2` (centres unmarked) [D.67], the Emax in experiment [1] is less than 50%. In addition, the IC50 in experiment [2] is less than 100 nM.

Take `Cc1nn(C)c2c1C(c1ccc(Cl)cc1Cl)SC(C)(C)C(=O)N2C` (centres unmarked): in experiment [1], the Emax is less than 50%. In addition, the IC50 in experiment [2] was 1000 to 10000 nM.

Regarding `Cn1nc(-c2ccccn2)c2c1NCCSC2c1c(Cl)cccc1Cl` (centres unmarked) [D.2], the Emax in experiment [1] was less than 50%. Moreover, the IC50 in experiment [2] lay within 1000 to 10000 nM.

Turning to `COc1ccc(C2SCCNc3c2c(-c2ccccn2)nn3C)c(C)c1` (centres unmarked) [D.10], the Emax in experiment [1] is less than 50%. The IC50 in experiment [2] is less than 100 nM.

The molecule `Cc1nn(C)c2c1C(c1ccc(Cl)cc1Cl)SC(C)(C)CN2` (centres unmarked) [D.4, 4-(2,4-dichlorophenyl)-1,3,6,6-tetramethyl-7,8-dihydro-4H-pyrazolo[3,4-e][1,4]thiazepine] yielded an Emax in experiment [1] of less than 50%. In addition, the IC50 in experiment [2] is less than 100 nM.

The molecule `Cc1ccc(Br)cc1C1SCCNc2c1c(-c1ccccn1)nn2C` (centres unmarked) [D.27, 4-(5-bromo-2-methyl-phenyl)-1-methyl-3-(2-pyridyl)-4,6,7,8-tetrahydropyrazolo[3,4-e][1,4]thiazepine] had an Emax in experiment [1] of less than 50%. Further, the IC50 in experiment [2] was less than 100 nM.

For the molecule `CCn1nc(-c2ccncn2)c2c1NCCSC2c1ccc(Br)cc1C` (centres unmarked) [D.108], the maximum response (Emax) in experiment [1] is more than 50%. Further, the IC50 in experiment [2] is less than 100 nM.

In experiment [1], `Cc1nn(C)c2c1C(c1ccc3[nH]ncc3c1)SCCN2` (centres unmarked) [D.76] returned an Emax of less than 50%. Moreover, the IC50 in experiment [2] was more than 10000 nM.

As for `Cc1cc(Cl)ccc1C1SCCNc2c1c([C@@H]1CCCN1)nn2C` (mixture of isomers), the Emax in experiment [1] is less than 50%. Besides, in experiment [2], the IC50 was in the range of 1000 to 10000 nM.

Regarding `Cc1ccccc1C1SCCNc2c1c(-c1ccccn1)nn2C` (centres unmarked) [D.14], the Emax in experiment [1] is less than 50%. Further, in experiment [2], the IC50 is less than 100 nM.

In experiment [1], `Cn1nc([C@@H]2CCCN2)c2c1NCCSC2c1ccc(Cl)cc1Cl` (mixture of isomers) came in with an Emax of less than 50%. Also, in experiment [2], the IC50 is more than 10000 nM.

Molecule `Cc1cc(Cl)ccc1[C@H]1S[C@H](CCO)CNc2c1c(-c1ccccn1)nn2C` (single isomer, unassigned) [M.11, 2-(4-(4-chloro-2-methylphenyl)-1-methyl-3-(pyridin-2-yl)-4,6,7,8-tetrahydro-1H-pyrazolo[3,4-e][1,4]thiazepin-6-yl)ethanol] came in with an Emax in experiment [1] of less than 50%. The IC50 in experiment [2] lay in the range of 1000 to 10000 nM.

On to `Cc1cc(C#N)ccc1[C@@H]1S[C@@H](C)CNc2c1c(C1CC1)nn2C` (racemic) [G.4], for which the Emax in experiment [1] is less than 50%. The IC50 in experiment [2] is less than 100 nM.

In experiment [1], `Cc1cc(Cl)ccc1C1SCCNc2c1c(-c1ccccn1)nn2C` (single isomer, unassigned) displayed a maximum response (Emax) of less than 50%. In addition, the IC50 in experiment [2] is 100 to 1000 nM.

Take `Cn1nc(C2CC2)c2c1NCC(C)(C)SC2c1ccc(Cl)cc1F` (single isomer, unassigned) [M.3, 4-(4-chloro-2-fluorophenyl)-3-cyclopropyl-1,6,6-trimethyl-4,6,7,8-tetrahydro-1H-pyrazolo[3,4-e][1,4]thiazepine]: in experiment [1], the Emax is less than 50%. In addition, the IC50 in experiment [2] is 1000 to 10000 nM.

Turning to `CCn1nc(-c2ccccn2)c2c1NCCSC2c1ccc(C(=O)Nc2cc(C)nn2C)cc1C` (centres unmarked) [S.2], the Emax in experiment [1] was more than 70%. The IC50 in experiment [2] was less than 100 nM.

As to `Cc1cc(Cl)ccc1[C@H]1SC(C)(C)CNc2c1c(C1CC1)nn2C`, in experiment [1], the Emax is more than 60%. For the same molecule, the IC50 in experiment [2] is less than 100 nM.

In turn, `CCn1nc(-c2ccccn2)c2c1NCCSC2c1ccc(C(=O)Nc2cccnc2C)cc1C(F)(F)F` (single isomer, unassigned) [M.68, 4-(1-ethyl-3-(pyridin-2-yl)-4,6,7,8-tetrahydro-1H-pyrazolo[3,4-e][1,4]thiazepin-4-yl)-N-(2-methylpyridin-3-yl)-3-(trifluoromethyl)benzamide] showed an Emax in experiment [1] of more than 70%. Further, the IC50 in experiment [2] lay within 1000 to 10000 nM.

On to `Cc1cc(OCc2cccnc2)ccc1C1SCCNc2c1c(-c1ccccn1)nn2C` (centres unmarked), for which the Emax in experiment [1] was less than 50%. Besides, in experiment [2], the IC50 lay within 100 to 1000 nM.

Molecule `Cc1cc(Cl)ccc1[C@@H]1SC[C@@H](C)Nc2c1c(-c1ccccn1)nn2C` gave an Emax in experiment [1] of more than 70%. Besides, the IC50 in experiment [2] was less than 100 nM.

As to `Cc1cc(OCc2cccnc2C)ccc1C1SCCNc2c1c(-c1ccccn1)nn2C` (centres unmarked), the Emax in experiment [1] is less than 50%. The IC50 in experiment [2] was less than 100 nM.
